Reference: the NIST ThermoML archive (doi:10.1021/acs.jced.5b00936)

Tests used:
[1] = for viscosity / mass density: 100 kPa, Liquid; for viscosity: Concentric cylinders viscometry; for mass density: Vibrating tube method
[2] = refractive index (Na D-line) (dimensionless); conditions: 100 kPa, Liquid, Standard Abbe refractometry

CCCC[N+](CCCC)(CCCC)CCCC.O=S(=O)([O-])CCN(CCO)CCO
Conditions | mass density, [1] [kg/m3] | refractive index, [2] | viscosity, [1] [mPa·s]
288.15 K | – | 1.49093 | –
293.15 K | – | 1.48966 | –
298.15 K | – | 1.48834 | –
303.15 K | – | 1.48706 | –
308.15 K | – | 1.48577 | –
313.15 K | 1052.4 | 1.48445 | 12001
318.15 K | 1049.6 | 1.48317 | 7582.5
323.15 K | 1046.8 | 1.48185 | 4970.6
328.15 K | 1044 | 1.48052 | 3346.6
333.15 K | 1041.2 | 1.4792 | 2305.7
338.15 K | 1038.4 | 1.47784 | 1621.8
343.15 K | 1035.6 | 1.47646 | 1163.2
348.15 K | 1032.8 | 1.47502 | 848.3
353.15 K | 1030.1 | 1.47363 | 630

CCCC[N+](CCCC)(CCCC)CCCC.O=S(=O)([O-])CC(O)CN1CCOCC1 [tetrabutylammonium 2-hydroxy-3-morpholinopropanesulfonate]
Conditions | mass density, [1] [kg/m3] | refractive index, [2] | viscosity, [1] [mPa·s]
308.15 K | 1051.2 | 1.48328 | 34148
313.15 K | 1048.2 | 1.48188 | 18392
318.15 K | 1045.3 | 1.48038 | 10603
323.15 K | 1042.3 | 1.47873 | 6381.1
328.15 K | 1039.4 | 1.47693 | 3976.3
333.15 K | 1035.8 | 1.47525 | 2571.7
338.15 K | 1033.1 | 1.47377 | 1702.9
343.15 K | 1030.4 | 1.47242 | 1158.3
348.15 K | 1027.6 | 1.47111 | 807.1
353.15 K | 1024.7 | 1.46984 | 574.9

C[N+](C)(C)CCO.O=S(=O)([O-])CC(O)CNC(CO)(CO)CO (centres undefined)
Conditions | mass density, [1] [kg/m3] | refractive index, [2] | viscosity, [1] [mPa·s]
323.15 K | – | 1.50991 | –
328.15 K | 1316.4 | 1.50884 | 56778
333.15 K | 1313.3 | 1.50769 | 34168
338.15 K | 1310.3 | 1.50654 | 21501
343.15 K | 1307.4 | 1.50552 | 14013
348.15 K | 1304.6 | 1.5044 | 9355.9
353.15 K | 1301.8 | 1.50327 | 6385.4

CCCC[P+](CCCC)(CCCC)CCCC.O=S(=O)([O-])CC(O)CNC1CCCCC1
Conditions | mass density, [1] [kg/m3] | refractive index, [2] | viscosity, [1] [mPa·s]
288.15 K | 1037.4 | 1.49654 | 32956
293.15 K | 1034.2 | 1.49497 | 17587
298.15 K | 1031.1 | 1.49313 | 10098
303.15 K | 1028.2 | 1.49162 | 6481.6
308.15 K | 1025.1 | 1.48983 | 3796
313.15 K | 1022.1 | 1.48782 | 2441.9
318.15 K | 1019 | 1.48724 | 1624.2
323.15 K | 1016 | 1.48547 | 1109.7
328.15 K | 1012.9 | 1.48368 | 779.6
333.15 K | 1009.8 | 1.48202 | 558.2
338.15 K | 1006.8 | 1.48045 | 409
343.15 K | 1003.8 | 1.47902 | 304.6
348.15 K | 1000.9 | 1.47764 | 231
353.15 K | 997.9 | 1.4763 | 177.9

CCCC[N+](CCCC)(CCCC)CCCC.O=S(=O)([O-])CC(O)CNC1CCCCC1
Conditions | mass density, [1] [kg/m3] | refractive index, [2] | viscosity, [1] [mPa·s]
308.15 K | 1020.4 | 1.48329 | 41227
313.15 K | 1017.3 | 1.48189 | 22114
318.15 K | 1014.4 | 1.48037 | 12579
323.15 K | 1011.5 | 1.47937 | 7480.4
328.15 K | 1008.6 | 1.47772 | 4609.3
333.15 K | 1005.7 | 1.47617 | 2935.7
338.15 K | 1002.8 | 1.47449 | 1926.8
343.15 K | 999.9 | 1.47291 | 1299.4
348.15 K | 997.2 | 1.47137 | 898.5
353.15 K | 994.3 | 1.46985 | 635.7

CCCC[N+](CCCC)(CCCC)CCCC.O=S(=O)([O-])CC(O)CNC(CO)(CO)CO
Conditions | Triple point temperature [K]
[1], Crystal, DSC | 364.15
